Values of other authors in patent US20090137477A1, “Treatment of oropharyngeal candidiasis in cancer patients” (BIOALLIANCE PHARMA, priority 2007, published 2009).

System: oropharyngeal candidiasis
Details: orally 50 mg/day for 14 days

OC(Cn1cncn1)(Cn1cncn1)c1ccc(F)cc1F [fluconazole]
clinical cure: 21%
clinical response: 53%
